# Laboratory results reported in paper PMC11469322, “Anti‐HER2 Super Stealth Immunoliposomes for Targeted‐Chemotherapy” (Advanced Healthcare Materials, 2023).
# Like-named read-outs stand apart in the source and are kept apart here.
# How the values were obtained:
# [1] = tested on: BT474 cells; experiment: In vitro cytotoxicity, ATPlite luminescence assay; format: cell-based; details: Homo sapiens, BT-474; BT474 (HER2+), 48 h treatment + 24 h fresh medium, µM in DXR
# Procedure: (§1) For cytotoxicity experiments, four human cancer cell lines were used, that is, three HER2+ BT474 (ATCC HTB‐20), SKBR3 (ATCC HTB‐ 30) and SKOV3 (ATCC HTB‐77), and the HER2‐ MDA‐MB‐231 (ATCC HTB‐26). Cells were maintained in DMEM medium supplemented with 10% fetal bovine serum (FBS), 1% glutamine, 1% penicillin‐streptomycin, in humidified conditions at 37 °C with 5% CO2.
# (§2) The cytotoxic effect of formulations was evaluated on HER2+ (BT474, SKBR3, and SKOV3) and HER2‐ (MDA‐MB‐231) cell lines by means of the ATPlite Luminescence ATP Detection Assay System. The cytotoxic effect of targeted DXR‐loaded liposomal formulations was compared to that of non‐targeted DXR‐loaded liposomes and free DXR (positive control). Cells treated only with the medium were used as control. Briefly, the cells were seeded in black 96‐well plates at a density of 5000 cells/well (SKBR3, SKOV3, and MDA‐MB‐231) and 7500 cells/well (BT474). After 24 h, cells were treated with increasing concentrations of the liposomal formulations (0.01–50 µM in DXR, n = 7) for 24 (SKBR3, SKOV3, and MDA‐MB‐231) or 48 (BT474) h. At the end of the exposure, treatments were replaced by fresh complete medium for 24 h. To quantify ATP production, cells were treated following the manufacturer's instructions, and luminescence was quantified by means of a Victor Nivo multi‐plate reader (PerkinElmer, Waltham, MA, USA). The percentage of cell viability was determined as (luminescencetreated cells/luminescencecontrol cells) × 100. IC50 values were calculated using GraphPad Prism 9.0 (San Diego, CA, USA) by a nonlinear regression model.
# [2] = tested on: SKBR3 cells; experiment: In vitro cytotoxicity, ATPlite luminescence assay; format: cell-based; details: Homo sapiens, SK-BR-3; SKBR3 (HER2+), 24 h treatment + 24 h fresh medium, µM in DXR
# Procedure: as §1, §2
# [3] = tested on: SKOV3 cells; experiment: In vitro cytotoxicity, ATPlite luminescence assay; format: cell-based; details: Homo sapiens, SK-OV-3; SKOV3 (HER2+), 24 h treatment + 24 h fresh medium, µM in DXR
# Procedure: as §1, §2
# [4] = Pharmacokinetic study in rats; format: in vivo, Sprague Dawley rats; details: 2.5 mg kg^−1 in DXR i.v.; for half-life: female, Sprague Dawley, rat, plasma, iv, 2.5 mg/kg, bicompartmental model
# Procedure: DXR was extracted by treating 50 µL of plasma with 10 µL of 1 M Triton X‐100 and 580 µL of 81 mM HCl in isopropanol to allow plasma proteins precipitation. After overnight incubation at 4 °C, samples were centrifuged for 3 min × 3000 rpm and the supernatants were analyzed using an FP‐6500 Jasco spectrofluorometer (λ ex = 470 nm; λ em = 584 nm). DXR concentration in each plasma sample was extrapolated through a calibration curve of standard solutions of either DXR or DXR‐loaded SL for the liposomal formulations. The pharmacokinetic analysis was performed using the PKSolver 2.0 software by applying a bicompartmental model.
# [5] = Toxicological study in rats (blood count, plasma biochemistry, histology); format: in vivo, Sprague Dawley rats
# Text: The study protocol was approved by the Ethics Committee of the University of Padova and the Italian Ministry of Health (Prot. No. 938/2016‐PR obtained on October 10, 2016), and animals were handled in compliance with national and international guidelines, that is, the Italian Legislative Decree 26/2014 and the “Guide for the Care and Use of Laboratory Animals” by the National Research Council of the National Academies. Female Sprague Dawley rats (140–190 g) were randomly divided into groups of 6 rats each. A dose of 2.5 mg kg^−1 in DXR of either free drug or DXR‐loaded liposomal formulations (SL, SIL, SSIL2) was administered via tail vein to the rats previously anesthetized with isoflurane gas (mixed with O2 in enclosed cages). At scheduled time points, blood samples (≈200 µL) were collected from the tail into heparin‐treated tubes and thereafter immediately centrifuged 15 min × 1500 × g to separate plasma. Rats were euthanized with isoflurane anesthesia 48 h after administration and the blood was collected with an intracardiac puncture to measure complete blood count and plasma biochemistry. These measurements were performed by means of standard laboratory tests.^[ [27] ^] After sacrifice, the main organs (liver, spleen, lungs, kidneys, heart, brain, ovaries) were collected, weighed, washed with saline solution, and frozen in liquid nitrogen. An appropriate amount of each organ was placed in formalin for histological analysis.^[ [28] ^]
smiles,measurement,setting,value
"COc1cccc2c1C(=O)c1c(O)c3c(c(O)c1C2=O)C[C@@](O)(C(=O)CO)C[C@@H]3O[C@H]1C[C@H](N)[C@H](O)[C@H](C)O1 [DXR, Doxorubicin]",IC50,[1],0.08 ± 0.003 µM
same,IC50,[2],0.034 ± 0.026 µM
same,IC50,[3],0.092 ± 0.004 µM
same,AUC0‐inf,[4],0.06 ± 0.031 µg·h/mL
same,half-life,[4]; read-out: t 1/2 alpha (converted),34.4 ± 21.6 min
same,half-life,[4]; read-out: t 1/2 beta (converted),79.1 ± 48.7 min
same,"Anemia (red blood cells, hemoglobin, hematocrit decreased versus controls)","[5]; 2.5 mg kg^−1 in DXR i.v., 48 h",anemic
same,Erythrocytes (RBCs),"[5]; 2.5 mg kg^−1 in DXR i.v., 48 h",4.61e+12 L⁻¹
same,Hematocrit,"[5]; 2.5 mg kg^−1 in DXR i.v., 48 h",0.286 L/L
same,Hemoglobin,"[5]; 2.5 mg kg^−1 in DXR i.v., 48 h",93 ± 10 g/L
same,Liver histology,"[5]; 2.5 mg kg^−1 in DXR i.v., 48 h",small and isolated granulomatous lesion
same,MCH,"[5]; 2.5 mg kg^−1 in DXR i.v., 48 h",20.3 ± 0.4 pg
same,MCHC,"[5]; 2.5 mg kg^−1 in DXR i.v., 48 h",329 ± 20 g/L
same,MCV,"[5]; 2.5 mg kg^−1 in DXR i.v., 48 h",61.8 ± 2.9 fL
same,Platelets (PLTs),"[5]; 2.5 mg kg^−1 in DXR i.v., 48 h",811 ± 402 x109/L
same,RDW,"[5]; 2.5 mg kg^−1 in DXR i.v., 48 h",11.8 ± 0.5%
same,Spleen histology,"[5]; 2.5 mg kg^−1 in DXR i.v., 48 h",slight increased hematopoiesis
same,Leukocytes (WBCs),"[5]; 2.5 mg kg^−1 in DXR i.v., 48 h after administration",2.05 ± 1.15 x109/L
same,Glucose,"[5]; plasma biochemistry, 2.5 mg kg^−1 in DXR i.v., 48 h",10.7 ± 0.8 mmol/L
same,ALP,"[5]; plasma biochemistry, 48 h",143 ± 36 U/L
same,ALT,"[5]; plasma biochemistry, 48 h",20 ± 6 U/L
same,AST,"[5]; plasma biochemistry, 48 h",78 ± 16 U/L
same,Albumin,"[5]; plasma biochemistry, 48 h",42 ± 3 g/L
same,Calcium,"[5]; plasma biochemistry, 48 h",2.67 ± 0.09 mmol/L
same,Chloride,"[5]; plasma biochemistry, 48 h",102 ± 2 mmol/L
same,Creatinine,"[5]; plasma biochemistry, 48 h",16 ± 2 µM
same,Direct bilirubin,"[5]; plasma biochemistry, 48 h",0.3 ± 0.2 µM
same,Inorganic Phosphorous,"[5]; plasma biochemistry, 48 h",2.45 ± 0.16 mmol/L
same,Potassium,"[5]; plasma biochemistry, 48 h",3.9 ± 0.4 mmol/L
same,Sodium,"[5]; plasma biochemistry, 48 h",142 ± 1 mmol/L
same,Total bilirubin,"[5]; plasma biochemistry, 48 h",0.4 ± 0.2 µM
same,Total cholesterol,"[5]; plasma biochemistry, 48 h",64 ± 9 mg/dL
same,Triglycerides,"[5]; plasma biochemistry, 48 h",64 ± 37 mg/dL
same,Urea,"[5]; plasma biochemistry, 48 h",4.7 ± 0.2 mmol/L
